Data on one compound can be found in patent US20180086749A1, “INHIBITORS OF VIRUSES” (priority 2015, published 2018).

One assay concerns HIV-1. The assay is described as follows: HIV-1 viral infectivity assay (TZM-bl). It counts as cell-based. On the set-up: reduction in viral infectivity: dose or concentration left out as unconfirmed.
For assay [1], the system named is HEK-Blue IFN-α/β reporter cells. The assay is described as follows: HEK-Blue IFN-α/β cell reporter assay (SEAP). The class given is cell-based, human. In general terms: A reporter such as luciferase makes a cellular process visible.
Another assay concerns ZIKV/PRVABC59. Kind of assay: Dose-response EC50, ZIKV/PRVABC59. The class given is cell-based. The settings on record: Zika virus, Vero 76, Vero76, MOI 0.05.
In another assay the test system is WNV/NY99. The class given is cell-based, West Nile virus.

Structures are written as SMILES.

As for `CN(C(=O)Cc1sccc1F)c1nc2c(s1)CCCC2` [ML416, 2-(3-fluorothiophen-2-yl)-N-methyl-N-(4,5,6,7-tetrahydro-1,3-benzothiazol-2-yl)acetamide], the inhibition at 10 µM in the assay on HIV-1 (Human immunodeficiency virus 1, TZM-bl, read-out: inhibition at 10 μM) was determined as 94%. Further, the “reduction in viral infectivity” value in the assay on HIV-1 (TZM-bl reporter system, luciferase) was 94%. Moreover, in assay [1] (HEK 293T supernatant on HEK-Blue IFN-α/β cells), the “IFN α/β in cell culture supernatant” value was “no measurable quantity of IFNs was detected”. In addition, the SEAP activity result in assay [1] (HEK-Blue IFN-α/β cells treated directly, FIG. 6) is reported as “did not induce SEAP activity”. Moreover, in the assay on ZIKV/PRVABC59, it took 2200 nM to reach a half-maximal effect (EC50). The “Log titer inhibition at 5 μM” value in the assay with WNV/NY99 is −2.05 ± −0.09 Log. In addition, the Log titer reduction in the assay with WNV/NY99 (5 μM) is ~2 Log.

For orientation: inhibition means the share of the control response that was lost under treatment. What is called EC50 is the concentration that produces a half-maximal response.
